Assay results published in publication PMC7063992, “Opossum Cathelicidins Exhibit Antimicrobial Activity Against a Broad Spectrum of Pathogens Including West Nile Virus” (Frontiers in Immunology, 2020).
No end group written: not given here.

Legend:
[1] = tested on: E. coli (ATCC 25922); test: Serum stability: antimicrobial activity after incubation in human serum; assay type: in vitro ADME, Escherichia coli; settings: for antimicrobial activity after incubation with human serum: 25% (v/v) pooled human serum, 37°C, activity against E. coli, OD 450 nm, triplicate; for antimicrobial activity after incubation with serum: 25% pooled human serum, 0, 60 and 120 min, Figure S6
Experimental: Antimicrobial peptides were dissolved in 25% (v/v) pooled human serum from five individuals, and incubated at 37°C. Aliquots were extracted in triplicate after 0, 60, and 120 min incubation, and their antimicrobial activity against E. coli (ATCC 25922) was assessed using the incubated samples, as described above.

[2] = tested on: HEK293T; test: Mammalian cell cytotoxicity, WST-1; assay type: cell-based, human; settings: 24 h, WST-1, triplicate
Experimental: (§1) Two mammalian cell lines, including human embryonic kidney cells (HEK293T) and human breast cancer cells (MCF7) were cultured in Dulbecco’s modified Eagle’s medium (DMEM; Hyclone^TM, Logan, UT, United States) supplemented with 10% FBS (Hyclone^TM) and 1% penicillin/streptomycin (Hyclone^TM) and incubated at 37°C and 5% CO2 up to 80% confluence. Cellular adherence to the substratum was disrupted using Accutase (Innovative Cell Technologies, San Diego, CA, United States). In total, 1 × 10^4 to 4 × 10^4 cells in each well of a 96-well plate containing 8, 16, 32, and 64 μg/mL of ModoCath peptides were incubated for 24 h at 37°C and 5% CO2. Additionally, HEK293T cells were incubated in the FBS-free medium. Triton X 100 (Sigma Aldrich) was used as a positive control for complete cell lysis, and untreated cells were used as the negative control. After incubation, the medium was removed from the wells, and 10 μL of coloring solution (Cell Proliferation Reagent WST-1^TM; Sigma Aldrich) and 100 μL of DMEM (Hyclone^TM) were added to the wells in accordance with the manufacturer’s protocol. Absorbance was measured for each well at 440 nm (peptide-treated and control) and 650 nm (background) and recorded as the OD, using a microplate reader (xMark^TM spectrophotometer; Bio-Rad). Cell viability was calculated using the following equation:
(§2) (1) CellViability(%)=100×(ODpeptide-ODbackground)/(ODnegative-ODbackground)
(§3) All experiments were performed in triplicate.

[3] = tested on: MCF7; test: Mammalian cell cytotoxicity, WST-1; assay type: cell-based, human; settings: 24 h, WST-1, triplicate
Experimental: as §1, §2, §3

[4] = tested on: HEK293T; test: Mammalian cell cytotoxicity, WST-1, FBS-free medium; assay type: cell-based, human; settings: HEK293T cells, mean ± SD, triplicated
Experimental: as §1, §2, §3

[5] = tested on: HEK293T and MCF7 cells and human primary keratinocytes; test: Cytotoxicity, summary over all tested cells; assay type: cell-based; settings: at concentrations below 16 μg/mL
Experimental: as §1, with “Triton X 100 (Sigma Aldrich) was used as a positive control for complete cell lysis, and untreated cells were used as the negative control. After incubation, the medium was removed from the wells, and 10 μL of coloring solution (Cell Proliferation Reagent WST-1^TM; Sigma Aldrich) and 100 μL of DMEM (Hyclone^TM) were added to the wells in accordance with the manufacturer’s protocol.” left out, “equation: […]” for “equation:”
Primary keratinocytes were cultured in 96-well plates at 4 × 10^4 cells per well in 0.1 mL K-SFM (Invitrogen) up to 80% confluence before being treated with various concentrations of ModoCath peptides for 24 h. Cell viability was assessed using the cell proliferation kit II (XTT; Roche, Basel, Switzerland) in accordance with the manufacturer’s protocol. […]

[6] = at a higher concentration than 1x MIC

Sequence | antimicrobial activity after incubation with human serum ([1]; 60 min, at >∼2× MIC) | antimicrobial activity after incubation with human serum ([1]; 120 min) | antimicrobial activity after incubation with serum ([1]; at 1x MIC) | antimicrobial activity after incubation with serum [1, 6] | Cell viability ± SD ([2]; 8 μg/mL, 37°C) [%] | Cell viability ± SD ([2]; 16 μg/mL) [%] | Cell viability ± SD ([2]; 32 μg/mL) [%] | Cell viability ± SD ([2]; 64 μg/mL) [%] | Cell viability ± SD ([3]; 8 μg/mL) [%] | Cell viability ± SD ([3]; 16 μg/mL) [%] | Cell viability ± SD ([3]; 32 μg/mL) [%] | Cell viability ± SD ([3]; 64 μg/mL) [%] | Cell viability ± SD (%) Serum negative ([4]; peptide 8 ㎍/㎖) [%] | Cell viability ± SD (%) Serum negative ([4]; peptide 16 ㎍/㎖) [%] | Cell viability ± SD (%) Serum negative ([4]; peptide 32 ㎍/㎖) [%] | Cell viability ± SD (%) Serum negative ([4]; peptide 64 ㎍/㎖) [%] | Cell survivability [5] [%]
WYQLIRTFGNLIHQKYRKLLEAYRKLRD [ΔModoCath5] | unaffected | decreased | highly affected | considerably stable | 93.7 ± 8.3 | 67.4 ± 3.1 | 47.8 ± 2.7 | 35.0 ± 0.8 | 98.4 ± 4.2 | 84.6 ± 0.6 | 28.4 ± 0.7 | 10.3 ± 2.8 | 98.6±6.5 | 63.5±5.2 | 39.3±7.6 | 34.0±1.6 | –
VKRTKRGARRGLTKVLKKIFGSIVKKAVSKGV [ΔModoCath1] | unaffected | decreased | highly affected | considerably stable | 108.1 ± 9.9 | 105.5 ± 6.9 | 66.9 ± 5.0 | 55.7 ± 6.2 | 91.2 ± 2.5 | 89.2 ± 0.6 | 79.1 ± 1.8 | 42.4 ± 2.1 | 109.5±9.8 | 103.7±6.9 | 69.5±7.9 | 55.9±4.4 | > 90
VRRSKRGIKVPSFVKKVLKDVVSESIS [ΔModoCath6] | – | – | – | – | 103.8 ± 5.0 | 95.6 ± 8.4 | 89.0 ± 13.1 | 88.8 ± 8.1 | 89.2 ± 1.4 | 93.2 ± 0.9 | 92.8 ± 1.0 | 95.2 ± 1.0 | – | – | – | – | > 90
